Where “and” joins values, the source holds several entries; their conditions need not be identical. Equal values may be shown once.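 96-well plates; 48 h exposure; 5 concentrations. Endpoints by linear interpolation between flanking doses. Not reached: highest tested concentration assigned. GI50: concentration for 50% inhibition of growth. Definition used: TGI = concentration required for complete inhibition of growth.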
Columns and labels:
Experiment in all cases: growth of human tumour cells (NCI), 48 h; in the data active = GI50 below about 0.43 µM; inactive = the rest
[1] = test system: 786-0 renal
[2] = test system: SNB-75 CNS
[3] = test system: NCI-H226 lung
[4] = test system: SNB-19 CNS
[5] = test system: SF-295 CNS
[6] = test system: OVCAR-8 ovarian
[7] = test system: EKVX NSCLC
[8] = test system: HOP-62 NSCLC
[9] = test system: PC-3 prostate
[10] = test system: DU-145 prostate

Cc1ccccc1NC(=O)C(=O)C(c1cnc2ccc([N+](=O)[O-])cc2n1)[N+](=O)[O-] (centres undefined)
> 100 µM: TGI [1] | TGI [2] | TGI [3] | TGI [4] | TGI [5] | TGI [6] | TGI [7] | TGI [8]

COC(=O)/C(C#N)=C1\CCC(O)N1C (centres undefined)
> 100 µM: TGI [1] | TGI [2] | TGI [3] | TGI [4] | TGI [5] | TGI [6] | TGI [7] | TGI [8]

O=C1OCc2c1cc(F)cc2[N+](=O)[O-]
inactive: GI50 [1] > 100 µM | GI50 [2] > 100 µM | GI50 [3] > 100 µM | GI50 [9] > 100 µM | GI50 [4] > 100 µM | GI50 [5] > 100 µM | GI50 [10] > 100 µM | GI50 [6] > 100 µM | GI50 [8] > 100 µM
> 100 µM: TGI [1] | TGI [2] | TGI [3] | TGI [9] | TGI [4] | TGI [5] | TGI [10] | TGI [6] | TGI [8]

COC(=O)N/N=C(/CCN1CCCC1)CC(c1ccccc1)c1c(O)c2ccccc2oc1=O (centres undefined)
> 100 µM: TGI [1] | TGI [2] | TGI [3] | TGI [4] | TGI [5] | TGI [6] | TGI [7] | TGI [8]

C=C[C@]1(C)CCC2=C(CCC3C2(C)CCC[C@]3(C)CO)C1 (some centres undefined)
> 100 µM: TGI [1] | TGI [2] | TGI [3] | TGI [4] | TGI [5] | TGI [6] | TGI [7] | TGI [8]

CC(=O)NC(CCCCNC(=O)N(CCCl)N=O)C(=O)NCc1ccccc1 (centres undefined)
> 100 µM: TGI [1] | TGI [2] | TGI [3] | TGI [4] | TGI [5] | TGI [6] | TGI [7] | TGI [8]

O=C1C(=O)N(C(=O)c2ccc(Cl)c(Cl)c2)c2ccc(Cl)cc21
> 100 µM: TGI [1] | TGI [2] | TGI [3] | TGI [4] | TGI [5] | TGI [6] | TGI [7]

COc1cc(-c2cc(=O)c3ccccc3o2)ccc1N
> 100 µM: TGI [1] | TGI [4] | TGI [5] | TGI [6] | TGI [7] | TGI [8]
83.2 µM: TGI [2]
96.6 µM: TGI [3]

COc1cc2nc(Sc3c([N+](=O)[O-])ncn3C)[nH]c2cc1OC
58 µM: TGI [6]
80.7 µM: TGI [7]
> 100 µM: TGI [1] | TGI [2] | TGI [3] | TGI [4] | TGI [5] | TGI [8]

C#CCOCn1cnc2c(=S)nc[nH]c21
> 100 µM: TGI [1] | TGI [3] | TGI [4] | TGI [5] | TGI [6] | TGI [7] | TGI [8]
98.9 µM: TGI [2]

C/C=C/C=N/N(C(=O)c1cc([N+](=O)[O-])cc([N+](=O)[O-])c1)C1=NC(c2ccccc2)C(c2ccccc2)=NN1 (centres undefined)
> 100 µM: TGI [1] | TGI [2] | TGI [3] | TGI [4] | TGI [5] | TGI [6] | TGI [7] | TGI [8]

COc1cc2ccc3c4c(OC)cc(OC)c(OC)c4c(=O)n(C)c3c2cc1OC
16.7 µM and > 48.7 µM: TGI [7]
2.89 µM and > 22.4 µM: TGI [5]
14.5 µM and > 42.5 µM: TGI [2]
7.11 µM and > 43.5 µM: TGI [8]
> 51.7 µM: TGI [4]
inactive: GI50 [1] 1.78 µM | GI50 [2] 3.25 µM | GI50 [5] 0.809 µM | GI50 [6] 0.451 µM | GI50 [7] 5.65 µM | GI50 [8] 1.4 µM
> 42 µM: TGI [3]

Reference: PubChem BioAssay (NCI)
